Data as given in patent US10478425B2, “5-phenylazaindole derivative having AMPK-activating activity” (Shionogi & Co., Ltd., priority 2016, dated 2019).
“And” between values parts separate entries of the source, which are not always exact repeats. Equal values may be shown once. Read-outs that look alike come from different tables or passages of the source.

Assays:
Human AMPK α2β2γ1 = molecular target: T1, Human AMPK α2β2γ1 (Homo sapiens, UniProt O43741+P54646); assay: Test Example 2: activation of phosphorylated human AMPK α2β2γ1 (mobility-shift kinase assay, FL-Peptide 7); type: biochemical; conditions: for EC150: compound concentration showing 150% relative to the control (100%), human AMPK α2β2γ1 phosphorylated with CaMKK2; for Emax: maximum rate of increase in activity within the measurement range, control = 100%
T1 construct: The full length cDNAs of human AMPK β2 (NM_005399.3) and human AMPK α2 (NM_006252.3); The full length cDNAs of human AMPK β2 (NM_005399.3); the full length cDNA of human AMPK γ1 (NM_002733.3) had been inserted into pET28b(+); 6×His (N); made in house; host or cells: Escherichia coli BL21 CodonPlus (DE3)-RIL
T1 sequence (P54646 whole entry): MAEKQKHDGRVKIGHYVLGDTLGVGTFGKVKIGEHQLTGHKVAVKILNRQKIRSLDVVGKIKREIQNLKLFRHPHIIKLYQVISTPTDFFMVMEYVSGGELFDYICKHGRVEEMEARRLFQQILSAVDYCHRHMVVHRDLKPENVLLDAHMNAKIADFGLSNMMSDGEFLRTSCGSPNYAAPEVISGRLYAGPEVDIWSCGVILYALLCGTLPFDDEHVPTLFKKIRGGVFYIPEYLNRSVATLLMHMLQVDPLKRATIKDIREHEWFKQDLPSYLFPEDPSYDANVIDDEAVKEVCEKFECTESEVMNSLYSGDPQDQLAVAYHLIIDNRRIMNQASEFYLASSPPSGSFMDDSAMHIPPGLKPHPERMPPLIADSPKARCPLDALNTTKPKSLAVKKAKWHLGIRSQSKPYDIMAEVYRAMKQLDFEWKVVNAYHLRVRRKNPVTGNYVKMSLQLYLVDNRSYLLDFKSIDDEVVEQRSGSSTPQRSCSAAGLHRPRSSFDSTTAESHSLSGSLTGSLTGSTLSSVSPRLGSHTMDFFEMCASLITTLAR
T1 sequence (O43741 whole entry): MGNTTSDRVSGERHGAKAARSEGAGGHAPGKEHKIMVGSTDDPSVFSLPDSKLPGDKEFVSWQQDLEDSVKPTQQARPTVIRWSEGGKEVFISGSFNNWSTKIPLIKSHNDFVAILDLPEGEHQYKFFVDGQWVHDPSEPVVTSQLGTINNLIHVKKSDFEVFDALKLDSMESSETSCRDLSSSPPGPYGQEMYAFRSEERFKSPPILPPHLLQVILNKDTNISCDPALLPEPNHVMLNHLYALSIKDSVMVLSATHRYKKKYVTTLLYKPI
T1 sequence (P54619 whole entry partner): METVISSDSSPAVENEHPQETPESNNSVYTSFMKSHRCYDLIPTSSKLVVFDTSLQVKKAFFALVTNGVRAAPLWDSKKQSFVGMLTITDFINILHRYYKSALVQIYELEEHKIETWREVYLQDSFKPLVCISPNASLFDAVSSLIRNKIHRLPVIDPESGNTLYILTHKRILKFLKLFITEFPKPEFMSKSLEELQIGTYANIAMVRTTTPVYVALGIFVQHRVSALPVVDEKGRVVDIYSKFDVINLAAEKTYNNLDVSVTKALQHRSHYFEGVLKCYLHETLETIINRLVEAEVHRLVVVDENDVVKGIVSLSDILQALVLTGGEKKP
Procedure, shortened: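 His-tagged α2β2γ1 expressed in E. coli was pre-phosphorylated by GST-CaMKKβ (25 °C, 1–1.5 h), then exposed to compound for 10 min (1% DMSO). Reaction: pH 7.0 HEPES, ATP and 1.5 μM FL-Peptide 7 (final), 2 h at 25 °C. Mobility-shift conversion gave % activity increase versus compound-free control.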

[1] = tested on: phosphorylation of endogenous acetyl-CoA carboxylase (ACC) in L6-GLUT4myc myoblasts; assay: Test Example 3: cell-based ELISA of ACC (Ser79) phosphorylation for AMPK activation in L6-GLUT4myc myoblasts; conditions: for EC (150% of control): concentration causing 150% relative to vehicle control (100%), 3 hours, phospho-ACC; for Emax: maximum response within varying concentrations, vehicle control = 100%
Protocol: Cell-based assay for AMPK activation potency of compounds was performed with L6-GLUT4myc myoblasts (J. Biol. Chem. 278:17953-62, 2003) in a 96-well or 384-well plate by detecting the phosphorylation of endogenous acetyl-CoA carboxylase (ACC) using cell-based ELISA method. The cells were seeded in a 96-well plate at a density of 2×10^4 cells per well or in a 384-well plate at a density of 3.5×10^3 cells per well in minimum essential media (α-MEM) supplemented with 10% fetal bovine serum, 100 U/mL penicillin, 100 μg/mL streptomycin, 2 μg/mL blasticidin S hydrochloride and 0.5 mg/mL G418 disulfate, and maintained in a humidified atmosphere of 95% air and 5% CO2 at 37° C. for 24 hours. Following the overnight culture with an assay buffer consisting of 0.1% bovine serum albumin (BSA), 100 U/mL penicillin and 100 μg/mL streptomycin, cells were treated with varying concentrations of compounds or vehicle (dimethyl sulfoxide at a final concentration of 0.33%) in the presence of 0.1% BSA or 4% BSA for 3 hours at room temperature. After fixing cells with ice-cold 4% formaldehyde in Tris-buffered saline (TBS) for 30 min, the fixed cells were rinsed with TBS containing 0.1% or 0.01% Triton X-100 (TBS-T) and quenched with 0.6% hydrogen peroxide in TBS-T, and blocked with a blocking reagent (Blocking One P manufactured by Nacalai Tesque). Then, anti-phospho-ACC (Ser79) antibody as the primary antibody (manufactured by Cell Signaling Technology) diluted with TBS-T containing 5% Blocking One P was added to each well and the plate was incubated overnight at 4° C. After rinsing each well with TBS-T, horseradish peroxidase (HRP)-conjugated anti-rabbit IgG as the secondary antibody diluted with TBS-T containing 5% Blocking One P was added to each well and the plate was incubated for 1 hour in 96-well plate or for 5 hours in 384-well plate at room temperature. Each well of the plate was rinsed with TBS-T and added a chemiluminescent reagent (ImmunoStar® LD manufactured by Wako Pure Chemical Industries) for detection of HRP conjugates. Ten minutes later, the luminescence intensity was measured using luminometer (ViewLux or ARVO manufactured by PerkinElmer). The luminescence in the presence of compound was calculated as the rate of change relative to vehicle control, which is in the absence of compound.

Row | SMILES | EC150 (Human AMPK α2β2γ1) | Emax (Human AMPK α2β2γ1; read-out: Emax) | EC (150% of control) [1] | Emax [1] | Emax (Human AMPK α2β2γ1)
1 | O[C@@H]1CO[C@H]2[C@@H]1OC[C@H]2Oc1cc2nc(-c3ccc(-c4ccc(OC5CCNC5)cc4)cc3)c(F)cc2[nH]1 (stereo partly shown) [Compound I-1-60] | < 0.051 nM | 486% | 0.019 µM | 495% | –
2 | CS(C)(=O)=Nc1ccc(-c2ccc(-c3nc4cc(O[C@@H]5CO[C@H](CO)C5)[nH]c4cc3Cl)cc2)cc1 [Compound I-1-02] | 2.2 nM | 510% | 0.0113 µM | 968% | –
3 | CS(=O)(=O)Nc1ccc(-c2ccc(-c3nc4cc(O[C@@H]5CO[C@H]6[C@@H]5OC[C@H]6O)[nH]c4cc3F)cc2)cc1 [Compound I-1-53] | 1.6 nM | 533% | – | – | –
4 | CS(C)(=O)=NC1CC=C(c2ccc(-c3nc4cc(O[C@@H]5CO[C@H](CO)C5)[nH]c4cc3F)cc2)CC1 (stereo partly shown) [Compound I-2-73] | 4.2 nM | 681% | – | – | –
5 | C[S@@](=O)(=Nc1ccc(-c2ccc(-c3nc4cc(O[C@@H]5CO[C@H]6[C@@H]5OC[C@H]6O)[nH]c4cc3F)cc2)cc1)c1ccccc1 [Compound I-1-19] | 5.8 nM | 477% | – | – | –
6 | O=S1(=Nc2ccc(-c3ccc(-c4nc5cc(O[C@@H]6CO[C@H]7[C@@H]6OC[C@H]7O)[nH]c5cc4F)cc3)cc2)CCOCC1 [Compound I-1-42] | 5.3 nM | 472% | – | – | –
7 | COC(=O)N1CCN(c2ccc(-c3nc4cc(O[C@@H]5CO[C@H]6[C@@H]5OC[C@H]6O)[nH]c4cc3F)cc2)CC1 [Compound I-1-57] | 32 nM | 550% | – | – | –
8 | O[C@@H]1CO[C@H]2[C@@H]1OC[C@H]2Oc1cc2nc(-c3ccc(-c4ccc(O[C@H]5CCOC5)cc4)cc3)c(F)cc2[nH]1 [Compound I-2-85] | 1.5 nM | 500% | – | – | –
9 | O[C@@H]1CO[C@H]2[C@@H]1OC[C@H]2Oc1cc2nc(-c3ccc([C@@H]4CCCC[C@H]4O)cc3)c(F)cc2[nH]1 [Compound I-2-17] | 15 nM | 600% | – | – | –
10 | CO[C@H]1[C@@H](CO)OC[C@H]1Oc1cc2nc(-c3ccc(-c4ccc(N=S(C)(C)=O)cc4)cc3)c(F)cc2[nH]1 [Compound I-2-26] | 8.6 nM | 298% | – | – | –
11 | CCOC(=O)N[C@H]1CC[C@H](c2ccc(-c3nc4cc(O[C@@H]5CO[C@H]6[C@@H]5OC[C@H]6O)[nH]c4cc3F)cc2)CC1 [Compound I-1-14] | 24 nM | 513% | – | – | –
12 | COCCNC(=O)c1ccc(-c2ccc(-c3nc4cc(O[C@@H]5CO[C@H](CO)C5)[nH]c4cc3F)cc2)cc1 [Compound I-2-82] | 0.5 nM | 591% | – | – | –
13 | O[C@@H]1CO[C@H]2[C@@H]1OC[C@H]2Oc1cc2nc(-c3ccc(-c4ccc(N5CCOCC5)cc4)cc3)c(F)cc2[nH]1 [Compound I-2-20] | 2.3 nM | 375% | – | – | –
14 | O[C@@H]1CO[C@H]2[C@@H]1OC[C@H]2Oc1cc2nc(-c3ccc(-c4ccc(OC5CNOC5)cc4)cc3)c(F)cc2[nH]1 (stereo partly shown) [Compound I-2-27] | 3.7 nM | 375% | – | – | –
15 | O=C(c1ccc(-c2ccc(-c3nc4cc(O[C@@H]5CO[C@H](CO)C5)[nH]c4cc3F)cc2)cc1)N1CCOCC1 [Compound I-2-81] | 0.78 nM | 591% | – | – | –
16 | CNC(=O)COc1ccc(-c2ccc(-c3nc4cc(O[C@@H]5CO[C@H]6[C@@H]5OC[C@H]6O)[nH]c4cc3F)cc2)cc1 [Compound I-2-47] | 2.2 nM | 635% | – | – | –
17 | OCCOc1ccc(-c2ccc(-c3nc4cc(O[C@@H]5CO[C@H]6[C@@H]5OC[C@H]6O)[nH]c4cc3F)cc2)cc1 [Compound I-1-72] | 3 nM | 353% | – | – | –
18 | CC(C)(O)/C=C/c1ccc(-c2nc3cc(O[C@@H]4CO[C@H]5[C@@H]4OC[C@H]5O)[nH]c3cc2F)cc1 [Compound I-2-14] | 9.9 nM | 507% | – | – | –

Row | SMILES | EC150 (Human AMPK α2β2γ1) | Emax (Human AMPK α2β2γ1; read-out: Emax) | EC (150% of control) [1] | Emax [1] | Emax (Human AMPK α2β2γ1)
19 | O[C@@H]1CO[C@H]2[C@@H]1OC[C@H]2Oc1cc2nc(-c3ccc(-c4ccc(OC5CNC[C@H]5F)cc4)cc3)c(F)cc2[nH]1 (stereo partly shown) [Compound I-2-28] | 4.4 nM | 398% | – | – | –
20 | CN(C)S(=N)(=O)c1ccc(-c2ccc(-c3nc4cc(O[C@@H]5CO[C@H](CO)C5)[nH]c4cc3F)cc2)cc1 (stereo partly shown) [Compound I-2-25] | 1.9 nM | 426% | – | – | –
21 | CP(C)(=O)c1ccc(-c2ccc(-c3nc4cc(O[C@@H]5CO[C@H](CO)C5)[nH]c4cc3F)cc2)cc1 [Compound I-2-65] | 0.6 nM | 673% | – | – | –
22 | CO[C@@H]1[C@@H](CO)OC[C@H]1Oc1cc2nc(-c3ccc(-c4ccc(N=S(C)(C)=O)cc4)cc3)c(F)cc2[nH]1 [Compound I-2-38] | 9.2 nM | 597% | – | – | –
23 | CC(=O)N[C@H]1CC[C@H](c2ccc(-c3nc4cc(O[C@@H]5CO[C@H]6[C@@H]5OC[C@H]6O)[nH]c4cc3F)cc2)CC1 [Compound I-1-41] | 7.8 nM | 562% | – | – | –
24 | CS(C)(=O)=Nc1ccc(-c2ccc(-c3nc4cc(O[C@@H]5CO[C@H]6[C@@H]5OC[C@H]6O)[nH]c4cc3Cl)cc2)cc1 [Compound I-1-30] | 1.7 nM | 500% | – | – | –
25 | CCC(=O)NC1CCN(c2ccc(-c3nc4cc(O[C@@H]5CO[C@H]6[C@@H]5OC[C@H]6O)[nH]c4cc3F)cc2)CC1 [Compound I-1-12] | – | – | – | – | 497% and 523%
26 | O=C1CCCN1c1ccc(-c2ccc(-c3nc4cc(O[C@@H]5CO[C@H]6[C@@H]5OC[C@H]6O)[nH]c4cc3F)cc2)cc1 [Compound I-1-37] | 6.5 nM | 405% | – | – | –
27 | O[C@@H]1CO[C@H]2[C@@H]1OC[C@H]2Oc1cc2nc(-c3ccc(-c4ccc(OCC5CCCO5)cc4)cc3)c(F)cc2[nH]1 (stereo partly shown) [Compound I-2-33] | 20 nM | 362% | – | – | –
28 | O=C(Nc1ccc(-c2ccc(-c3nc4cc(O[C@@H]5CO[C@H]6[C@@H]5OC[C@H]6O)[nH]c4cc3F)cc2)cc1)[C@@H]1C[C@@H]1F [Compound I-2-05] | 6.8 nM | 632% | – | – | –
29 | CS(=O)(=O)N[C@H]1CC[C@H](c2ccc(-c3nc4cc(O[C@@H]5CO[C@H]6[C@@H]5OC[C@H]6O)[nH]c4cc3F)cc2)CC1 [Compound I-1-45] | 19 nM | 482% | – | – | –
30 | O[C@@H]1CO[C@H]2[C@@H]1OC[C@H]2Oc1cc2nc(-c3ccc(-c4ccc(Oc5ccncc5)cc4)cc3)c(F)cc2[nH]1 [Compound I-2-45] | 5 nM | 613% | – | – | –
31 | C[S@](=O)(=Nc1ccc(-c2ccc(-c3nc4cc(O[C@@H]5CO[C@H]6[C@@H]5OC[C@H]6O)[nH]c4cc3F)cc2)cc1)c1ccccc1 [Compound I-1-18] | 19 nM | 415% | – | – | –
32 | CC(=O)Nc1ccc(-c2ccc(-c3nc4cc(O[C@@H]5CO[C@H]6[C@@H]5OC[C@H]6O)[nH]c4cc3F)cc2)cc1 [Compound I-1-35] | 5.9 nM | 432% | – | – | –
33 | CC(C)OC(=O)NC1CCN(c2ccc(-c3nc4cc(O[C@@H]5CO[C@H]6[C@@H]5OC[C@H]6O)[nH]c4cc3F)cc2)CC1 [Compound I-1-34] | 8.6 nM | 518% | – | – | –
34 | COCCOc1ccc(-c2ccc(-c3nc4cc(O[C@@H]5CO[C@H]6[C@@H]5OC[C@H]6O)[nH]c4cc3F)cc2)cn1 [Compound I-2-40] | 16 nM | 384% | – | – | –
35 | O[C@@H]1CO[C@H]2[C@@H]1OC[C@H]2Oc1cc2nc(-c3ccc(-c4ccc(NC5=NCCO5)cc4)cc3)c(F)cc2[nH]1 [Compound I-1-61] | 2.3 nM | 383% | – | – | –
